# Entries after “also recorded” stand apart in the source; their conditions may differ. Where two headings read alike, the source gives them in different places.
# Key:
# OVCAR-3 xenograft tumor = OVCAR-3 xenograft tumor fragment model (tumor growth, survival); assay type: in vivo, mice; conditions: 100 mpk twice daily
# Procedure: OVCAR-3 xenograft tumor fragments were harvested from host animals and implanted into immune-deficient mice (CR1:NU(NCr)-Fox1^nu). The study was initiated at a mean tumor volume of approximately 175-300 mm^3. […] The test agents were delivered at 10 mL/kg by oral gavage. […] Individual replicate values over the course of the experiment are shown in FIG. 19A, extended out to 42 days post-study initiation.
# [1] = system: caspase 3/7 in H526 cells; experiment: CaspaseGlo-3/7 activation; assay type: cell-based, human
# Procedure: Plates were removed from incubator and treated with CaspaseGlo-3/7 (Promega, Inc) following manufacturer specifications. Plates were then read on a Biotech luminometer with 1 sec/well integration. Results were converted to Microsoft Excel and transferred to GraphPad Prism for Analysis (FIG. 22D).
# Plates were removed from the incubator at each specified timepoint and treated with CaspaseGlo-3/7 (Promega, Inc) following manufacturer specifications. Plates were then read on Biotech luminometer with 1 sec/well integration. Results were converted to Microsoft Excel and transferred to GraphPad Prism for Analysis (FIG. 27A-C).
# [2] = system: OVCAR-3 cell loaded Hollow Fibers; experiment: Mouse hollow fiber assay (CellTiter Glo); assay type: in vivo, mice; conditions: 75, 100, 150 mg/kg twice daily, Day 16
# Procedure: The mouse hollow fiber assay was conducted using three tumor cell lines, OVCAR-3 (ovarian), MKN-1 (gastric), and HCC-1569 (breast), 1e7 OVCAR-3, 5e6 MKN-1, and 1e7 HCC-1569 cells were loaded into Hollow Fibers, placed in cell culture dishes containing RPMI-1640 with 20% FCS and 1% penicillin/streptomycin, and were equilibrated in an incubator at 37 C, 5% CO2 overnight. On Day 0, three fibers were implanted in two different compartments: subcutaneous and intraperitoneal of twenty-four female NMRI nude mice ages 4-5 weeks. […] Female NMRI nude mice were implanted both subcutaneously and intraperitoneally with HCC-1569, MKN1, and OVCAR3 tumor cell-loaded Hollow Fibers on Day 0. The number of animals alive on Day 0 (implantation) and on Day 16 (necropsy) in each group is shown in parentheses in the legend.
# OVCAR-3 cell loaded Hollow Fibers were implanted both subcutaneously and intraperitoneally into female NMRI nude mice on Day 0. Hollow Fibers were collected during necropsy on Day 16 and analyzed using a CellTiter Glo® assay.
# [3] = Approximate solvent solubility of free base; assay type: physicochemical
# Procedure: The following procedure was carried out: 25, 50 and 100 μL aliquots of the appropriate solvent system was added to 20 mg of free base. The experiments were checked for dissolution. Where dissolution was not observed, the experiments were stirred at 40° C. to check for dissolution at elevated temperature. Aliquots of solvent were added until dissolution was observed, or 2 mL of total solvent was added. Any clear solutions were uncapped and allowed to evaporate at ambient temperature (ca. 20° C.) and pressure. Any slurries were isolated by centrifugation and the solids were analyzed by XRPD.
# [4] = Respiratory safety pharmacology study; assay type: in vivo, rats; conditions: any dose level
# Description: Safety pharmacology studies described more fully below included a functional observational battery (FOB) testing in a 28-day repeat-dose toxicity study in rats, electrocardiogram (ECG) evaluations in a 28-day repeat-dose toxicity study in dogs, and a single-dose respiratory safety pharmacology study in rats.
# CYP1A2 = target: T1, CYP1A2 (Homo sapiens, UniProt P05177); experiment: CYP inhibition in human liver microsomes; assay type: in vitro ADME
# T1 construct: human liver microsomes were incubated in the appropriate isoform-specific probe substrate; from tissue; host or cells: human liver microsomes
# T1 sequence (P05177 whole entry, canonical isoform): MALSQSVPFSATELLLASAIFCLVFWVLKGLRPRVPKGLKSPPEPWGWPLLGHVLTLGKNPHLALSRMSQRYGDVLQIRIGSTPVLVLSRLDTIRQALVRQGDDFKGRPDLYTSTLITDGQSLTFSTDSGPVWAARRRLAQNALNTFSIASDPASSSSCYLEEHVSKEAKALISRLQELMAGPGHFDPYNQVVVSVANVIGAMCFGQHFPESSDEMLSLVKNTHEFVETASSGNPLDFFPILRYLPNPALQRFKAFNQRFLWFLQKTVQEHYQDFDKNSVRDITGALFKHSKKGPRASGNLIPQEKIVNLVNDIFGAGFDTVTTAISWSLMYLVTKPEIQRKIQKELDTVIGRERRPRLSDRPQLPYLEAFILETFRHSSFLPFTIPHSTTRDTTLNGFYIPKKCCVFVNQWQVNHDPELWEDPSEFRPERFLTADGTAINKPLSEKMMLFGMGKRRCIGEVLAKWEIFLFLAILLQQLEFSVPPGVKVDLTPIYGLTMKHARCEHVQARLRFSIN
# Procedure: (§1) The final DMSO content in the reaction mixtures was ≤0.2%. A selective inhibitor of each isoform was also screened as a positive control. Incubations were terminated by the addition of methanol. The quenched samples were incubated at 4° C. for 10 minutes and filtered by centrifugation for 1 minute at 500 rcf. The supernatants were removed, and the probe substrate metabolites were analyzed by LC-MS/MS.
# (§2) The LC-MS/MS system consisted of an AB Sciex API5500 mass spectrometer coupled with an Agilent 1290 liquid chromatography system and an Agilent 1290 Infinity HTS chilled autosampler, controlled through Analyst software (AB Sciex). Samples were analyzed using the following solvent system and gradient: Acquity™ C18 Reverse Phase UPLC HSS T3 (1.8 μm) 2.1×50 mm column; 50° C. Column Temp.; 10 μL Injection Vol.; Mobile Phase A: Water+0.1% Formic Acid; Mobile Phase B: Acetonitrile+0.1% Formic Acid; Flow Rate: 0.6 mL/min.
# CYP2B6 = target: T2, CYP2B6 (Homo sapiens, UniProt P20813); experiment: CYP inhibition in human liver microsomes; assay type: in vitro ADME
# T2 construct: human liver microsomes were incubated in the appropriate isoform-specific probe substrate; from tissue; host or cells: human liver microsomes
# T2 sequence (P20813 whole entry, canonical isoform): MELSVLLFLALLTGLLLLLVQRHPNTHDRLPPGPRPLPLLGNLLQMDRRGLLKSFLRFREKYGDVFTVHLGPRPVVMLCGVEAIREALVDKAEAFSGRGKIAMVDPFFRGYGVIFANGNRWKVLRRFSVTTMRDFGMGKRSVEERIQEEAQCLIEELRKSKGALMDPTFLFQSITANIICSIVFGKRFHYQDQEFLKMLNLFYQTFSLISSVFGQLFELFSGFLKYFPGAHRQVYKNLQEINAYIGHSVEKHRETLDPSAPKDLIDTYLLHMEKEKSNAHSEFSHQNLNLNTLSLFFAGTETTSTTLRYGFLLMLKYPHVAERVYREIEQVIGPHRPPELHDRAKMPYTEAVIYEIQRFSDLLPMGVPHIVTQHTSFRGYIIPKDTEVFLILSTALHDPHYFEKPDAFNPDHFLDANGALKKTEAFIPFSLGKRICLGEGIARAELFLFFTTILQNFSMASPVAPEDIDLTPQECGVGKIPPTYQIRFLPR
# Procedure: as §1, §2
# CYP2C19 = target: T3, CYP2C19 (Homo sapiens, UniProt P33261); experiment: CYP inhibition in human liver microsomes; assay type: in vitro ADME
# T3 construct: human liver microsomes were incubated in the appropriate isoform-specific probe substrate; from tissue; host or cells: human liver microsomes
# T3 sequence (P33261 whole entry, canonical isoform): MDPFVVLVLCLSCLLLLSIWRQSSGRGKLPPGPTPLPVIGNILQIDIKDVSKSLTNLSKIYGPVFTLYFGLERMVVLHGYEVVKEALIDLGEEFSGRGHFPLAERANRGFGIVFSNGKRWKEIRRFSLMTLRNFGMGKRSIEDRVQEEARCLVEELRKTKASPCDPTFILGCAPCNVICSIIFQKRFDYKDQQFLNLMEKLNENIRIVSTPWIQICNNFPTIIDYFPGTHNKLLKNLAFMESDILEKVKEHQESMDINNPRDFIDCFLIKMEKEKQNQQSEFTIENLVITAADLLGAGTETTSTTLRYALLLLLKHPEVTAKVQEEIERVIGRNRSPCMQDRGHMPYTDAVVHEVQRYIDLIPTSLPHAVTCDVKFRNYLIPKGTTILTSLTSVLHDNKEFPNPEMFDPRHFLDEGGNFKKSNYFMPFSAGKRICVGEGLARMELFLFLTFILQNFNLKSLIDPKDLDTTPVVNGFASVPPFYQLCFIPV
# Procedure: as §1, §2
# CYP2C8 = target: T4, CYP2C8 (Homo sapiens, UniProt P10632); experiment: CYP inhibition in human liver microsomes; assay type: in vitro ADME
# T4 construct: human liver microsomes were incubated in the appropriate isoform-specific probe substrate; from tissue; host or cells: human liver microsomes
# T4 sequence (P10632 whole entry, canonical isoform): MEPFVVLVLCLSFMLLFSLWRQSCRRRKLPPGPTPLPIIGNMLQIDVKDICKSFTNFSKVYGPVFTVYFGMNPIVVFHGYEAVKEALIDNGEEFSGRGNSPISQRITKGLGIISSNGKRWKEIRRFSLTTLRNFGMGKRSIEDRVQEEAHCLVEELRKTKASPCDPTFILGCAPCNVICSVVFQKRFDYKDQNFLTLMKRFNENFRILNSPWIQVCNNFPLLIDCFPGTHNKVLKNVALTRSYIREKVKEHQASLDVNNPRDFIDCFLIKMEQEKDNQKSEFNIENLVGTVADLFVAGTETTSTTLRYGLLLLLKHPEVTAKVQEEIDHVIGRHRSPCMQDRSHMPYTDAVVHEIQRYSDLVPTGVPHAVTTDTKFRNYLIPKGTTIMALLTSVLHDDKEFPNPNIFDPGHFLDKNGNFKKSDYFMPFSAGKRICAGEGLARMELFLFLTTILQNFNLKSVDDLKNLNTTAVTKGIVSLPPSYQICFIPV
# Procedure: as §1, §2
# CYP2C9 = target: T5, CYP2C9 (Homo sapiens, UniProt P11712); experiment: CYP inhibition in human liver microsomes; assay type: in vitro ADME
# T5 construct: human liver microsomes were incubated in the appropriate isoform-specific probe substrate; from tissue; host or cells: human liver microsomes
# T5 sequence (P11712 whole entry, canonical isoform): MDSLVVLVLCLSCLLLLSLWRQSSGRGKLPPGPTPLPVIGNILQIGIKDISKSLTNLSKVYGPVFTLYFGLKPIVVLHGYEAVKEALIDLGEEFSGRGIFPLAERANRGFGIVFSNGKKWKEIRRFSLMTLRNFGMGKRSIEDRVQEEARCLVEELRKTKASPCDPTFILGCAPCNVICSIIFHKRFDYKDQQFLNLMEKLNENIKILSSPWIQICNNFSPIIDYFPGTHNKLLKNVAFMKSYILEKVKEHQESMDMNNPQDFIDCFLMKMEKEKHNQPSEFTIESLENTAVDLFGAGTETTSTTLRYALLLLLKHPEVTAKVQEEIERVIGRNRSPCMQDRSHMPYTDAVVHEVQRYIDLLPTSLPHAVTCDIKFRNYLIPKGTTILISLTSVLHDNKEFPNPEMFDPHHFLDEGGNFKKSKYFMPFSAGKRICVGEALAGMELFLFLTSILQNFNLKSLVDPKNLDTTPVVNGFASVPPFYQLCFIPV
# Procedure: as §1, §2
# CYP2D6 = target: T6, CYP2D6 (Homo sapiens, UniProt P10635); experiment: CYP inhibition in human liver microsomes; assay type: in vitro ADME
# T6 construct: human liver microsomes were incubated in the appropriate isoform-specific probe substrate; from tissue; host or cells: human liver microsomes
# T6 sequence (P10635 whole entry, canonical isoform): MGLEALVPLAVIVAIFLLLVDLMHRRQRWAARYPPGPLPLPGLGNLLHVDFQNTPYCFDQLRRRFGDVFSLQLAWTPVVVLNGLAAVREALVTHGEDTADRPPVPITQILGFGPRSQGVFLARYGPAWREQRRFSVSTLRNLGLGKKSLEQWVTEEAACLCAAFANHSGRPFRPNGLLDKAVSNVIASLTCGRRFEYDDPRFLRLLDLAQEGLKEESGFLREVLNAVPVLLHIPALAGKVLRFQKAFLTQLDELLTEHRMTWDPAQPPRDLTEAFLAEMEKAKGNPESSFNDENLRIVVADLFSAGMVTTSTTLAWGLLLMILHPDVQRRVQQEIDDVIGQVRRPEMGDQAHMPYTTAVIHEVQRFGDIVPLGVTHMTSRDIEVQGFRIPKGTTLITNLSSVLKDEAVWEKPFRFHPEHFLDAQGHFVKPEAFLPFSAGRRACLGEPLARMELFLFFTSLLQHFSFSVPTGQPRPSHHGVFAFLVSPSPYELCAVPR
# Procedure: as §1, §2
# [5] = target: T7, CYP3A4 (midazolam as substrate) (Homo sapiens, UniProt P08684); experiment: CYP inhibition in human liver microsomes; assay type: in vitro ADME
# T7 construct: human liver microsomes were incubated in the appropriate isoform-specific probe substrate; from tissue; host or cells: human liver microsomes
# T7 sequence (P08684 whole entry, canonical isoform): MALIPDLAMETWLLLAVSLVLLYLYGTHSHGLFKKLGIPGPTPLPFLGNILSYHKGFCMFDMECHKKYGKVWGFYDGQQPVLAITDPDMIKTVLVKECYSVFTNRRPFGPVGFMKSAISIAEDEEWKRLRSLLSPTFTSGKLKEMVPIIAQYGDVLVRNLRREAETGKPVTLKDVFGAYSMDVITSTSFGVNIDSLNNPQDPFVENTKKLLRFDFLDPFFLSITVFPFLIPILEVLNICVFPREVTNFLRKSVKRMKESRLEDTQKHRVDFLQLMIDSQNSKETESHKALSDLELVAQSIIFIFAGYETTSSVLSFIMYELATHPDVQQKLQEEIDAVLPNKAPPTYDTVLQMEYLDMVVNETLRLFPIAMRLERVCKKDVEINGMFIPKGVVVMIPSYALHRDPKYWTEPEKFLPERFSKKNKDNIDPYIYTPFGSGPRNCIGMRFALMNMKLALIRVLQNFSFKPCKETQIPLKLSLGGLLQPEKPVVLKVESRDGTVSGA
# Procedure: as §1, §2
# [6] = target: T8, CYP3A4 (testosterone as substrate) (Homo sapiens, UniProt P08684); experiment: CYP inhibition in human liver microsomes; assay type: in vitro ADME
# T8 construct: human liver microsomes were incubated in the appropriate isoform-specific probe substrate; from tissue; host or cells: human liver microsomes
# T8 sequence (P08684 whole entry, canonical isoform): as above
# Procedure: as §1, §2
smiles,measurement,setting,value
NS(=O)(=O)c1ccc(Nc2ncc3cc4n(c3n2)C2(CCCCC2)C(=O)NN4)cc1 [Compound I],overall survival,OVCAR-3 xenograft tumor,greatest overall survival
same,tumor volume,"OVCAR-3 xenograft tumor; oral gavage, 28 days",reduced tumor volume the most among all treatment conditions
same,caspase 3/7 activation,[1]; 24 hours,no appreciable caspase 3/7 activation
same,IC50,[1]; 72 hours,0.129 µM
same,IC50,"[1]; Homo sapiens, NCI-H526, 48 h, 48 hours",0.181 µM
same,IC50,"[1]; Homo sapiens, NCI-H526, 72 h, 72 hours",0.116 µM
same,tumor bioluminescence signal (CellTiter Glo) of Hollow Fibers,[2],significant reduction
same,Solubility,[3]; 2-Methyl-THF,<10000 µg/mL
same,Solubility,[3]; 2-Propanol,<10000 µg/mL
same,Solubility,[3]; 2-Propanol:Water (80:20 % v/v),<10000 µg/mL
same,Solubility,[3]; Acetone,<10000 µg/mL
same,Solubility,[3]; Anisole,<10000 µg/mL
same,Solubility,[3]; Ethanol,<10000 µg/mL
same,Solubility,[3]; Ethyl Acetate,<10000 µg/mL
same,Solubility,[3]; Methylethyl Ketone,<10000 µg/mL
same,Solubility,"[3]; N,N-dimethylacetamide, organic solvent or mixture, thermodynamic from solid, read-out: Solubility",22000 µg/mL
same,Solubility,[3]; Tetrahydrofuran,<10000 µg/mL
same,Solubility,[3]; Toluene,<10000 µg/mL
same,Solubility,"[3]; dimethylsulfoxide, organic solvent or mixture, thermodynamic from solid, read-out: Solubility",88000 µg/mL
same,respiratory function,[4],did not affect; also recorded: not affected
same,IC50,"CYP1A2; CYP1A2, substrate Tacrine, human liver microsomes",> 25 µM
same,CYP1A2 inhibition,CYP1A2; up to 25 μM,Marginal to no inhibition
same,IC50,"CYP2B6; CYP2B6, substrate Bupropion, human liver microsomes",> 25 µM
same,CYP2B6 inhibition,CYP2B6; up to 25 μM,Marginal to no inhibition
same,IC50,"CYP2C19; pH 7.4, probe mephenytoin, CYP2C19, substrate Mephenytoin, human liver microsomes",25 µM
same,CYP2C19 inhibition,CYP2C19; up to 25 μM,Marginal to no inhibition
same,IC50,"CYP2C8; CYP2C8, substrate Amodiaquine, human liver microsomes",> 25 µM
same,CYP2C8 inhibition,CYP2C8; up to 25 μM,Marginal to no inhibition
same,IC50,CYP2C9,14.9 µM
same,IC50,"CYP2D6; CYP2D6, substrate Dextromethorphan, human liver microsomes",> 25 µM
same,CYP2D6 inhibition,CYP2D6; up to 25 μM,Marginal to no inhibition
same,IC50,"[5]; CYP3A4, substrate Midazolam, human liver microsomes",24.3 µM
same,CYP3A4 inhibition (midazolam as substrate),[5]; up to 25 μM,Marginal to no inhibition
same,IC50,[6],9.59 µM

# Source: patent US20250199015A1, “CYCLIN-DEPENDENT KINASE 2 INHIBITORS FOR MEDICAL TREATMENT” (INCYCLIX BIO, LLC, priority 2022, published 2025)
